Experimental data as given in ChEMBL document CHEMBL2069169, “Novel triazines as potent and selective phosphodiesterase 10A inhibitors” (Bioorg Med Chem Lett, 2012).
Activity calls are given as the source filed them. The calls are words filed in the database; no cut-off is given here.

What was measured:
[1] = test system: Rattus norvegicus; experiment: Antipsychotic activity in po dosed rat assessed as reduction of MK801-induced stereotyped sniffing; assay type: functional; design: Activity: scale not given: the % may be the effect or the level left; details: for minimal effective dose: Rattus norvegicus, po, read-out: MED
[2] = test system: Rattus norvegicus; experiment: Antipsychotic activity in po dosed rat assessed as reduction of MK801-induced hyperactivity; assay type: functional; design: Activity: scale not given: the % may be the effect or the level left; details: for minimal effective dose: Rattus norvegicus, po, read-out: MED
[3] = organism: Homo sapiens; experiment: Selectivity ratio of IC50 PDE2 to IC50 for human recombinant PDE10A
[4] = Clearance in rat at 2 mg/kg, iv and 10 mg/kg, po; assay type: ADME, organism-based; details: in vivo
[5] = molecular target: Phosphodiesterase 4 (Homo sapiens, UniProt P27815+Q08499+Q07343+Q08493); experiment: Inhibition of PDE4; assay type: protein assay
[6] = Oral bioavailability in rat at 10 mg/kg; assay type: ADME, organism-based; details: in vivo
[7] = AUC in rat plasma at 2 mg/kg, iv and 10 mg/kg, po; assay type: ADME, organism-based
[8] = AUC in rat brain at 2 mg/kg, iv and 10 mg/kg, po; assay type: ADME, organism-based
[9] = Elimination half life in rat at 2 mg/kg, iv and 10 mg/kg, po; assay type: ADME, organism-based; details: in vivo, read-out: beta t1/2 (converted)
[10] = Volume of distribution at steady state in rat at 2 mg/kg, iv and 10 mg/kg, po; assay type: ADME, organism-based; details: in vivo, read-out: Vdss
[11] = molecular target: Phosphodiesterase 3 (Homo sapiens, UniProt Q14432+Q13370); experiment: Inhibition of PDE3; assay type: protein assay
[12] = molecular target: cGMP-specific 3',5'-cyclic phosphodiesterase (Canis lupus familiaris, UniProt O77746); experiment: Inhibition of PDE5; design: species or system Homo sapiens
[13] = molecular target: Phosphodiesterase 6; experiment: Inhibition of PDE6; assay type: protein assay, Homo sapiens
[14] = organism: Homo sapiens; experiment: Selectivity ratio of IC50 PDE3 to IC50 for human recombinant PDE10A
[15] = organism: Homo sapiens; experiment: Selectivity ratio of IC50 PDE6 to IC50 for human recombinant PDE10A
[16] = organism: Homo sapiens; experiment: Selectivity ratio of IC50 PDE4 to IC50 for human recombinant PDE10A
[17] = organism: Homo sapiens; experiment: Selectivity ratio of IC50 PDE5 to IC50 for human recombinant PDE10A
[18] = test system: Rattus norvegicus; experiment: Antipsychotic activity in Sprague-Dawley rat assessed as reduction of conditioned avoidance response at 0.17 mg/kg, po; assay type: functional, organism-based; design: dose 0.17 mg/kg
[19] = test system: Rattus norvegicus; experiment: Antipsychotic activity in po dosed Sprague-Dawley rat assessed as reduction of conditioned avoidance response; assay type: functional
[20] = organism: Homo sapiens; experiment: Selectivity ratio of IC50 PDE11 to IC50 for human recombinant PDE10A
[21] = molecular target: cGMP-dependent 3',5'-cyclic phosphodiesterase (Homo sapiens, UniProt O00408); experiment: Inhibition of PDE2
[22] = organism: Homo sapiens; experiment: Selectivity ratio of IC50 PDE9 to IC50 for human recombinant PDE10A
[23] = organism: Homo sapiens; experiment: Selectivity ratio of IC50 PDE8 to IC50 for human recombinant PDE10A
[24] = organism: Homo sapiens; experiment: Selectivity ratio of IC50 PDE1 to IC50 for human recombinant PDE10A
[25] = organism: Homo sapiens; experiment: Selectivity ratio of IC50 PDE7 to IC50 for human recombinant PDE10A
[26] = molecular target: cAMP and cAMP-inhibited cGMP 3',5'-cyclic phosphodiesterase 10A (Homo sapiens, UniProt Q9Y233); experiment: Inhibition of human recombinant PDE10A-catalyzed cAMP hydrolysis
Chain of cAMP and cAMP-inhibited cGMP 3',5'-cyclic phosphodiesterase 10A (Q9Y233 whole entry): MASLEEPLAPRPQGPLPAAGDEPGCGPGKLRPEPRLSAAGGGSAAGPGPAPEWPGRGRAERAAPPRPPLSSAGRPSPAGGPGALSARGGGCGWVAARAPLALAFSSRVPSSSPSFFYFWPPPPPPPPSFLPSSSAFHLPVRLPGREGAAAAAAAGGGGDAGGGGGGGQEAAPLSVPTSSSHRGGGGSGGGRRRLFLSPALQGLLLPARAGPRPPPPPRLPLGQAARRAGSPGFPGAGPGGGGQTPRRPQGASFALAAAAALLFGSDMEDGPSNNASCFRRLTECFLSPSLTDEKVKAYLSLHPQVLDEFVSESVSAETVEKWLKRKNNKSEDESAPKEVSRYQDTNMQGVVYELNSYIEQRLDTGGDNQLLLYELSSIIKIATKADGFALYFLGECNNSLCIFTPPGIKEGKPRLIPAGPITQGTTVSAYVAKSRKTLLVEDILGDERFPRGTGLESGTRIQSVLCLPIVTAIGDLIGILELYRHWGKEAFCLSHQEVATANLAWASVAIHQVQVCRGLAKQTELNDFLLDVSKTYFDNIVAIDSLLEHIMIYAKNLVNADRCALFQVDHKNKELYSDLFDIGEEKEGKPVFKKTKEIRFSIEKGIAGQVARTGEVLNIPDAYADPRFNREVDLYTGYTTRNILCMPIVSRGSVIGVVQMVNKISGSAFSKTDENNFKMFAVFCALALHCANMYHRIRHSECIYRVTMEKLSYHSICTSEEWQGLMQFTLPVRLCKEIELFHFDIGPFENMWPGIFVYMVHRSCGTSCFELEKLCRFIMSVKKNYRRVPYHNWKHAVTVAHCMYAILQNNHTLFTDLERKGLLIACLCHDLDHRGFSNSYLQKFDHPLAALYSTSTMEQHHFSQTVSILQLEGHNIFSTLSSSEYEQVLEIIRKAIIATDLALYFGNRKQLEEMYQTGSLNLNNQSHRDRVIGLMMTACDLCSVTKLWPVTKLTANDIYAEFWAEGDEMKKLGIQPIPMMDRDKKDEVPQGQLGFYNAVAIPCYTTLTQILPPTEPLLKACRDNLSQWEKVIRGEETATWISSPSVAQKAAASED

Chain of cGMP-dependent 3',5'-cyclic phosphodiesterase (O00408 whole entry): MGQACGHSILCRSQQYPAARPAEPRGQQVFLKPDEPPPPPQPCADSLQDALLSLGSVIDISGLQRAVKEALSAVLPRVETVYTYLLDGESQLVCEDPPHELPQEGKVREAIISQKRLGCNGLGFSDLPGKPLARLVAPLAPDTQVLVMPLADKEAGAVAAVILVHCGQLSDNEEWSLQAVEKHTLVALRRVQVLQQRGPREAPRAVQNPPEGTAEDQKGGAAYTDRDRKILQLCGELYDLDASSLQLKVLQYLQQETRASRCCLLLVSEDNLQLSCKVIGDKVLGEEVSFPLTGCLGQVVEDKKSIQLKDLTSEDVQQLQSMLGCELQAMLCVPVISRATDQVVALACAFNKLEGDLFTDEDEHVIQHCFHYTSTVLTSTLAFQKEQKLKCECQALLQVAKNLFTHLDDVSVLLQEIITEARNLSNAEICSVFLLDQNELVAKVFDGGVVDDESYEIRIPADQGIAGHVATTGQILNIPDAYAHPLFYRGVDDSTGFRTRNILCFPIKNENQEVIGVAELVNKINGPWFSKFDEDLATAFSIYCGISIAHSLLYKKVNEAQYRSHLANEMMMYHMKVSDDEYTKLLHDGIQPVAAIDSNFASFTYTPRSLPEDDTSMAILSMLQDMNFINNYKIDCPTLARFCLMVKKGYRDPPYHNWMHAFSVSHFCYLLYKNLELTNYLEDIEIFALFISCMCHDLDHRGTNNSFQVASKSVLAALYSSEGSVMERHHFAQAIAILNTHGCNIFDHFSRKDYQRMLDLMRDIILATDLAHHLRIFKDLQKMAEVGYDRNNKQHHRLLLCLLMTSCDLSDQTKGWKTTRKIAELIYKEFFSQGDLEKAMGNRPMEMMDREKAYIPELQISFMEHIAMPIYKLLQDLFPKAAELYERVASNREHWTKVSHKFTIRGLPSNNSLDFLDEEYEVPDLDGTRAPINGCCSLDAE

## COc1cc(OC)c2nnc3c(C)nc(-c4ccncc4C)n3c2c1
[1]
  Activity: 57.4%
  minimal effective dose: 0.5 mg/kg
[2]
  Activity: 71.7%
  minimal effective dose: 0.5 mg/kg
[3]
  Ratio IC50: 300
[4]
  clearance: 13 mL/min/kg
[5]
  IC50: > 10 µM
[6]
  bioavailability: 100%
[7]
  AUC: 18700 ng·h/mL
[8]
  AUC: 2780 ng·h/mL
[9]
  half-life: 0.9 h
[10]
  Vd: 0.4 L/kg
[11]
  IC50: > 10 µM
[12]
  IC50: 4.95 µM
[13]
  IC50: 1.24 µM

## COc1ccnc2c1nnc1c(C)nc(-c3ccncc3C)n12
[14]
  Ratio IC50: > 100
[1]
  Activity: 34.1%
  minimal effective dose: 2.5 mg/kg
[2]
  Activity: 55.4%
  minimal effective dose: 2.5 mg/kg
[15]
  Ratio IC50: > 100
[3]
  Ratio IC50: > 100
[16]
  Ratio IC50: > 100
[17]
  Ratio IC50: > 100
[5]
  IC50: 3.68 µM
[11]
  IC50: > 10 µM
[12]
  IC50: > 10 µM
[13]
  IC50: > 10 µM

## COc1cc(C(F)(F)F)cc2c1nnc1c(C)nc(-c3ccncc3C)n12
[1]
  Activity: 18.4%
  minimal effective dose: 0.1 mg/kg
[18]
  Activity: Active
[2]
  Activity: 40.5%
  minimal effective dose: 0.1 mg/kg
[19]
  ID30: 0.123 mg/kg
[19]; Rattus norvegicus, Sprague-Dawley, po, read-out: ID50 (the source's name)
  ED50: 0.204 mg/kg
[4]
  clearance: 5 mL/min/kg
[5]
  IC50: > 10 µM
[6]
  bioavailability: 53%
[7]
  AUC: 1600 ng·h/mL
[8]
  AUC: 622 ng·h/mL
[9]
  half-life: 4.5 h
[10]
  Vd: 1.3 L/kg
[11]
  IC50: > 10 µM
[12]
  IC50: 2.29 µM
[13]
  IC50: 1.79 µM

## COc1ccnc2c1nnc1c(C)nc(-c3cccnc3C)n12
[14]
  Ratio IC50: > 100
[15]
  Ratio IC50: > 100
[20]
  Ratio IC50: > 500
[3]
  Ratio IC50: > 100
[21]
  IC50: 0.974 µM
[16]
  Ratio IC50: > 100
[22]
  Ratio IC50: > 500
[17]
  Ratio IC50: > 100
[5]
  IC50: 6.96 µM
[23]
  Ratio IC50: > 500
[24]
  Ratio IC50: > 500
[25]
  Ratio IC50: > 500
[11]
  IC50: > 10 µM
[26]
  IC50: 0.0124 µM
[12]
  IC50: > 5 µM
[13]
  IC50: > 5 µM
